What was measured:
Format in all cases: cell-based
[1] = tested on: Kaposi sarcoma herpesvirus (KSHV); test: KLEC genome copy number assay in KSHV-infected primary human dermal lymphatic endothelial cells; conditions: KSHV-infected LECs, 6 days
Protocol: The relative expression of KSHV from control was quantified and single values from n=3 technical replicates are shown. Bars represent mean + SD. P values were calculated using a 2-way ANOVA (left) and ordinary one way-ANOVA (right) followed by Dunnett’s multiple comparison test.
(§1) KSHV-infected cells were incubated with the indicated inhibitor at the concentrations stated in the Figure panels for six days prior to analysis. HeLa cells were incubated with the indicated inhibitor at the concentrations stated in the Figure panels for 24 hours prior to analysis.
Primary human dermal lymphatic (C-12216) endothelial cells (LECs) were purchased from Promocell and grown in Lonza EBM-2 (00190860) supplemented with EGMTM-2 MV Microvascular Endothelial SingleQuotsTM(CC-4147). Cell from passage 1-3 were used.
rKSHV.219 was produced from iSLK.219 cells reactivated using 0.2 µg/ml doxycycline and 1.35 mM NaB for 72 h. Supernatant was harvested, spun down (2000 rpm 5 min) and sterile filtered using […] pore-size filters. Subsequently the supernatant was ultracentrifuged at 22000 rpm for 2 h. The concentrated virus was then aliquoted and stored at -80° C.
Equal number of LECs were seeded into 6-well assay-plates and incubated at 37° C. & 5% CO2 until 80% confluency. After reaching confluency, LECs were infected with rKSHV.219 and incubated at 37° C. & 5% CO2 for 3 days, making sure that the cell density remained similar. Cell were subsequently mixed at a 2:3 ratio with uninfected LECs for 2 days. Once GFP expression and cell spindling was observed the culture medium was replaced with medium containing the experimental compounds with 0.25% DMSO (v/v) at concentrations from 0.1 uM to 50 uM. After 3 days of incubation, the cells were replenished with new medium containing experimental compounds and incubated for 3 more days.
After compound incubation, cells were collected and genomic and viral DNA was extracted using the NucleoSpin Tissue Kit (Macherey-Nagel, 740952) following the kit’s standard protocol. qPCR was subsequently completed (SYBR Green, ThermoFisher K0222) in triplicates using primers for viral K8.1 and Human genomic actin. K8.1 forward primer: […] (SEQ ID NO:1); reverse primer: […] (SEQ ID NO:2). Genomic acid forward primer: […] (SEQ ID NO:3); reverse primer: […] (SEQ ID NO:4).
A KLEC assay was used to examine the ability of the compounds to inhibit viral copy number in virus infected primary human dermal lymphatic endothelial cells (LECs).

[2] = molecular target: T1, SOX18 (Mus musculus, UniProt P43680); test: VCAM-1 luciferase reporter assay in COS-7 cells transfected with Vcam-1 promoter construct and SOX18; conditions: VCAM-1 promoter luciferase, 24 hr compound incubation, % of maximal signal without compound
T1 construct: expressed in transfected cells; host or cells: COS-7 (monkey kidney fibroblast-like cells)
T1 sequence (P43680 1-377): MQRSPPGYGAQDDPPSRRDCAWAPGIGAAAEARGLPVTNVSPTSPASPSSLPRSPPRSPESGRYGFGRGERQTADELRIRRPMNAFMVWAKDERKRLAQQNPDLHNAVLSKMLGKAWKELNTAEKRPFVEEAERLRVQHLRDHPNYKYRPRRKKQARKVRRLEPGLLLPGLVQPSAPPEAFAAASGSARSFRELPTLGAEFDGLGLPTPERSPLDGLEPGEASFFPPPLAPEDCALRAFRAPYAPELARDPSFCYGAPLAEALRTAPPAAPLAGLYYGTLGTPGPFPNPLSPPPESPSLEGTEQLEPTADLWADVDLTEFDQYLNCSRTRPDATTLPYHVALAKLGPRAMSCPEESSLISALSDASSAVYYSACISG
Protocol: Monkey kidney fibroblast-like cells (COS-7) were cultured at 37° C. and 5% CO2 in DMEM (Life Technologies, 11995) with fetal bovine serum (FBS), sodium pyruvate, L-glutamine, penicillin, streptomycin, non-essential amino acids, and HEPES. Cells were grown in 96-well plates to 80% confluence and transfected with mouse plasmids pGL2 Vcam-1 promoter construct (VC1889) and pReceiver M49 SOX18, using X-tremeGENE HP DNA transfection reagent (Roche, 6366236001). After 4 hr of transfection, cells were incubated with compounds in 0.5% FBS medium for another 24 hr, before lysis and luciferase assay (Perkin Elmer, 6016711). Results are presented as %inhibition of the maximal signal observed in cells transfected with VCAM-1 and SOX18 without compound incubation.
The second assay measured the interaction between SOX18 and the VCAM-1 promoter (Hosking et al., (2004) J Biol. Chem. 297:5314-5322). […] Without wishing to be bound by theory, it is understood that viral infection can induce an inflammatory response of endothelial cells, the latter being a result of VCAM-1 gene expression which is regulated by SOX18 activity (Huber J. (1994) J Virol. 68(6):3453-8). Put another way, the expression of VCAM-1 is driven by SOX18 so upon virus infection, SOX18 binds to the VCAM promoter and induces expression of VCAM.
The compounds described in Table 2 were tested by the VCAM-1 luciferase reporter assay. The results are shown in Table 2 under the column %inhibition of SOX18.

[3] = molecular target: T2, SOX18 (Homo sapiens, UniProt P35713); test: SOX18 luciferase reporter assay (7XTR and OriA reporters) in HeLa cells; conditions: HeLa cells transfected with SOX18 and 7xTR or OriA reporter, 24 hours treatment (FIG. 2)
T2 construct: expressed in transfected cells; host or cells: HeLa
T2 sequence (P35713 1-384): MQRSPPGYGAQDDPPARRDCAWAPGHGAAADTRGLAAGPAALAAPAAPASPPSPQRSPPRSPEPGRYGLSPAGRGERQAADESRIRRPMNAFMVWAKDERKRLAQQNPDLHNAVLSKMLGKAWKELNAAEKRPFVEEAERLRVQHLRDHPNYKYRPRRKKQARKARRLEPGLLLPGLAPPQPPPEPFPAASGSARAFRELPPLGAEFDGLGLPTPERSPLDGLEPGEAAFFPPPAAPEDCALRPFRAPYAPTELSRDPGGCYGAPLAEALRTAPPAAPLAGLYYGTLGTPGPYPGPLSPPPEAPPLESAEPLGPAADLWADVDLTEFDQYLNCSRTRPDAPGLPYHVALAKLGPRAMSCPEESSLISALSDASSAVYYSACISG
Protocol: Luciferase signal was quantified and single values from n=3 technical replicates are shown. Data points represent mean + SD. P values were calculated using a 2-way and ordinary one way ANOVA followed by Dunnett’s multiple comparison test.
as §1
HeLa cells were cultured in DMEM containing 10% FCS, 1% L-glutamine and 1% pen/strep at 37° C. & 5% CO2. Cells were seeded at a density of 7000 cells per well in 125 µL of the maintenance medium in a 96-well format for 24 hours.
Plasmids were transfected using FuGENE HD Transfection Reagent (Promega E2311) (1:4 DNA to reagent ratio) and Opti-MEM (ThermoFisher 31985062). OriA-luc negative control and experimental wells contained 25 ng OriA-luc plasmid and 10 ng SOX18 plasmid per well, positive control contained 25 ng OriA-luc plasmid and 10 ng mCherry plasmid per well. 7XTR-luc negative control and experimental wells contained 50 ng 7XTR-luc plasmid and 20 ng SOX18 plasmid per well, positive control contained 50 ng 7XTR-luc plasmid and 20 ng mCherry plasmid per well. Cell were incubated for 18 hours before cells were replenished with new medium containing experimental compounds and incubated for 24 hours.
Luminescence was measured by adding an equal volume of Steady-Glo reagent to cells at room temperature and luminescence was quantified using the FLUOstar plate reader (BMG Labtech, FLUOstar Omega; 4 sec intervals per well).
Activation of these genes was measured using HeLa cells that were transfected with luciferase-reporters harbouring either seven copies of the TR (7XTR) or the OriA promoter fused to OriLyt upstream of an SV40 promoter and a firefly luciferase reporter. ORF, that binds to the OriLyt and is a potent activator of this reporter (Chen J et al., (2009) Virology 386:290-302) was used as a positive control. […]

SMILES	%inhibition of Sox18 [2]	further results
O=C(O)c1c(O)cccc1CCc1ccc2ccccc2c1 [GB001, 2-hydroxy-6-(2-(naphthalen-2-yl)ethyl)benzoic acid]	99.10%	reduction in KSHV genome copy number (fold change) ([1]; 10 µM): Significant reduction in genome copy number; reduction in KSHV genome copy number (fold change) ([1]; 50 µM): Significant reduction in genome copy number; interference with SOX18-mediated gene transcription (luciferase signal) [3]: interferes with SOX18-mediates gene transcription
COc1cccc(/C=C/c2ccc3ccccc3c2)c1C(=O)O [GB002, (E)-2-methoxy-6-(2-(naphthalen-2-yl)vinyl)benzoic acid]	30.78%	reduction in KSHV genome copy number (fold change) ([1]; 50 µM): Significant reduction in genome copy number; interference with SOX18-mediated gene transcription (luciferase signal) [3]: interferes with SOX18-mediates gene transcription
O=C(O)c1c(O)cccc1CCc1ccccc1 [GB003, 2-hydroxy-6-phenethylbenzoic acid]	49.18%	–
O=C(O)c1c(O)cccc1CCc1ccc(Cl)cc1Cl [GB004, 2-(2,4-dichlorophenethyl)-6-hydroxybenzoic acid]	48.26%	reduction in KSHV genome copy number (fold change) ([1]; 5 µM): Significant reduction in genome copy number; interference with SOX18-mediated gene transcription (luciferase signal) [3]: interferes with SOX18-mediates gene transcription
COc1ccc(CCc2cccc(OC)c2C(=O)O)cc1 [GB005, 2-methoxy-6-(4-methoxyphenethyl)benzoic acid]	25.32%	–
COc1cccc(COCc2ccc3ccccc3c2)c1C(=O)O [GB006, 2-methoxy-6-((naphthalen-2-ylmethoxy)methyl)benzoic acid]	19.33%	–
Cc1cc(O)c(C(=O)O)c(CCc2ccc3ccccc3c2)c1 [GB012, 2-hydroxy-4-methyl-6-(2-(naphthalen-2-yl)ethyl)benzoic acid]	96.7%	–
O=C(O)c1c(O)cc(Cl)cc1CCc1ccc2ccccc2c1 [GB019, 4-chloro-2-hydroxy-6-(2-(naphthalen-2-yl)ethyl)benzoic acid]	54.02%	–
COc1cc(O)c(C(=O)O)c(CCc2ccc3ccccc3c2)c1 [GB025, 2-hydroxy-4-methoxy-6-(2-(naphthalen-2-yl)ethyl)benzoic acid]	67.19%	–
COC(=O)c1c(O)cccc1/C=C/c1ccccc1 [GB026, methyl (E)-2-hydroxy-6-styrylbenzoate]	49.66%	–
COc1cccc(CCc2cccc3ccccc23)c1C(=O)O [GB027, 2-methoxy-6-(2-(naphthalen-1-yl)ethyl)benzoic acid]	47.43%	–
COC(=O)c1c(O)cccc1CCc1ccc(Cl)cc1 [GB028, methyl 2-(4-chlorophenethyl)-6-hydroxybenzoate]	48.31%	–
